Source: patent publication US20070077268A1, “Hydrophobic carrier modified implants for beneficial agent delivery” (DePuy Products, Inc., priority 2005, published 2007)

Test: Cyclic loading test of UHMWPE pins, release of beta-carotene
Format: physicochemical
Details: pins soaked in 1.0 wt. % beta-carotene in squalane at 90° C. for 24 hours; peak load about 330 Newtons, 1.66 Hz, bovine calf serum, 37° C.
Experimental: UHMWPE (GUR 1050) is irradiated with gamma radiation (50 KGy or 5 Mrad) and melt annealed to quench free radicals. An AMTI Ortho-POD Wear Test Machine is used for the testing the UHMWPE cylindrical pin samples. The samples are ⅜ inch in diameter and 0.7 inch long, and are soaked in a 1.0 wt. % solution of beta-carotene in squalane at 90° C. for 24 hours. The samples are bright orange red in color, indicating the presence of beta-carotene.
A Paul loading curve with a peak load of about 330 Newtons is applied to the pins. The cycling frequency is 1.66 Hz. A 90% bovine calf serum, diluted with EDTA and sodium azide dissolved in reverse osmosis water, is used as lubricant. The temperature of the lubricant is 37° C.

## CC1=C(/C=C/C(C)=C/C=C/C(C)=C/C=C/C=C(C)/C=C/C=C(C)/C=C/C2=C(C)CCCC2(C)C)C(C)(C)CCC1 [beta-carotene]
  release of beneficial agent from UHMWPE pins (colour change bright orange red to light orange): released, activated by the load
